Test results as given in patent US7001888B2, “Compositions and methods for treating cancer” (Threshold Pharmaceuticals, Inc., priority 2002, dated 2006).
“And” between values parts separate entries of the source, which are not always exact repeats. Equal entries are not always repeated.

Test system: HepG2 cells
Assay: Uptake of compounds by HepG2 cells
Assay type: cell-based, human
Details: for Uptake: 100 μM compound, 1 hour at 37° C., per mg protein, iodo conjugates by ICP-MS iodide content, 14C controls by scintillation counting; for Effect of D-glucose on uptake: D-glucose (10 mM) present; for Effect of L-glucose on uptake: L-glucose (10 mM) present; for Relative uptake among the compounds of the invention tested: comparison of Table 1 values
Procedure: This example describes assays conducted to determine to what extent certain iodo-containing conjugates of the invention are taken up or transported into cancer cells. As a positive control, the uptake of ^14C-labeled-2-deoxy-D-glucose, a compound transported into human cells via glucose transporters and phosphorylated by hexokinase, and thus retained in the cell, was measured. As a negative control, the uptake of ^14C-labeled-3-O-methyl-glucose, which is transported into the cell via the glucose transporters but is not phosphorylated and so is not retained, was measured.
The control assay was conducted as follows. HepG2 cells were plated at a density of 2×10^5 cells per well into a 24 well plate, and the plates were maintained in 37° C. incubator (5% CO2) for 2 days. Prior to the uptake assay, the HepG2 cells were rinsed twice with pre-warmed (37° C.) phosphate-buffered saline (PBS) containing 1 mM CaCl2, 1 mM MgCl2 and 0.3% BSA. The rinsed HepG2 cells were then incubated with 270 μl of buffer (PBS/Ca/Mg/BSA) in the absence or presence of D-glucose (10 mM), L-glucose (10 mM), cytochalasin B (10 μM) or phloretin (0.3 mM) for 10 min at 37° C. Then, 30 μl of ^14C-2DG (final concentration: 100 μM, 0.1 μCi) were added to each well, and the cells were incubated for 1 hour at 37° C. The plate was placed on ice, and the cells were washed rapidly three times with cold PBS buffer (4° C.) containing 1 mM CaCl2 and MgCl2. The cells were then lysed with 150 μl of 1% Triton X-100, and the lysate was transferred to a scintillation vial. The well was rinsed with 200 μl ddH2O, and the rinsate was transferred to the same vial. Radioactivity was quantified using a scintillation counter. The protein concentration of each sample was determined using a BCA kit (Sigma, St Louis, Mo.). The amount of uptake of ^14C-2DG is reported below in units of nmole/mg protein/60 min.
To measure uptake of the iodo-containing compounds of the invention, HepG2 cells were plated at a density of 2×10^5 cells per well into a 24 well plate, and the plates were maintained in 37° C. incubator (5% CO2) for 2 days. Prior to the uptake assay, the HepG2 cells were rinsed twice with pre-warmed (37° C.) phosphate-buffered saline (PBS) containing 1 mM CaCl2, 1 mM MgCl2 and 0.3% BSA. The HepG2 cells were then incubated with 270 μl of buffer (PBS/Ca/Mg/BSA) in the absence or presence of D-glucose (10 mM), L-glucose (10 mM), cytochalasin B (10 μM) or phloretin (0.3 mM) for 10 min at 37° C. Then, 30 μl of each of the conjugates (final concentration: 100 μM) were added to individual test wells, and the plates were incubated for 1 hour at 37° C. The plate was placed on ice, and then, the cells were washed rapidly three times with cold PBS buffer (4° C.) containing 1 mM CaCl2 and MgCl2. The cells were lysed by the sequential addition of 150 μl of 1% Triton X-100 and 100 μl of ddH2O into each well. Lysates from six replicate wells were pooled together for each sample (volume per sample: 1.5 ml). The protein concentration of each sample was determined using a BCA kit (Sigma, St Louis, Mo.). Samples were diluted by addition of 4 ml of ddH2O (final volume per sample: 5.5 ml), and the samples treated with the iodo-containing conjugates were analyzed for iodide content by inductively coupled plasma-mass spectrometry (West Coast Analytical Service, Santa Fe Spring, Calif.). The amount of uptake of iodide-containing glucose conjugate is reported as nmole/mg protein/60 min.

Row | Compound | Uptake | Effect of D-glucose on uptake | Effect of L-glucose on uptake | Relative uptake among the compounds of the invention tested
1 | 4-(iodophenyl)thiocarbamoyl glucosamine [TP022] | 0.90 nmole/mg/60 min and 0.97 nmole/mg/60 min | – | – | –
2 | 4-iodobenzyl glucosamine [TP012] | 2.8 +/− 0.14 (n = 4) nmole/mg/60 min | not blocked | not blocked | most taken up by the cells
3 | 4-iodohippuroyl glucosamine [TP011] | 0.5 nmole/mg/60 min | blocked | not L-glucose | –
4 | CO[C@@H]([C@H](O)[C@H](O)CO)[C@@H](O)C=O [3-O-Methyl Glucose, 3-O-methyl-glucose, reference compound] | 0.2 nmole/mg/60 min | – | – | –
5 | O=CC[C@@H](O)[C@H](O)[C@H](O)CO [Compound 2-DG, 2-deoxy-D-glucose, reference compound] | 51.8 +/− 4.3 (n = 3) nmole/mg/60 min | – | – | –
6 | O=C(NCCN[C@H]1C(O)O[C@H](CO)[C@@H](O)[C@@H]1O)c1ccc(I)cc1 (stereo partly shown) [TP014] | 1.2 nmole/mg/60 min | – | – | –
7 | O=C(COCCOCCOCCOCCOCc1ccc(I)cc1)NC1C(O)O[C@H](CO)[C@@H](O)[C@@H]1O (stereo partly shown) [TP017] | 0.16 nmole/mg/60 min and 0.18 nmole/mg/60 min | – | – | –
8 | OC[C@H]1OC(O)[C@H](N(C/C=C\I)C/C=C\I)[C@@H](O)[C@@H]1O (stereo partly shown) [TP018, bis-Z-3-iodopropen-2-yl glucosamine] | 2.28 nmole/mg/60 min and 2.31 nmole/mg/60 min | – | – | most taken up by the cells
9 | OC[C@H]1OC(O)[C@H](N(C/C=C/I)C/C=C/I)[C@@H](O)[C@@H]1O (stereo partly shown) [TP019, bis-E-3-iodopropen-2-yl glucosamine] | 1.39 nmole/mg/60 min and 1.00 nmole/mg/60 min | – | – | –
10 | O=S(=O)(N[C@H]1C(O)O[C@H](CO)[C@@H](O)[C@@H]1O)c1ccc(I)cc1 (stereo partly shown) [TP020, Pipsyl glucosamine] | 0.83 nmole/mg/60 min and 0.81 nmole/mg/60 min | – | – | –
